Legend:
DhaA.WT = DhaA.WT (Rhodococcus rhodochrous, UniProt P0A3G2); test: Binding of labeled chloroalkane substrates to wild type DhaA
Text: (§1) Carboxytetramethylrhodamine-C10H21NO2—Cl, carboxyfluorescein-C10H21NO2—Cl, and 5-carboxy-X-rhodamine-C10H21NO2—Cl bound to DhaA.H272F but not to DhaA.WT. Biotin-C10H21NO2—Cl bound to DhaA.H272F but not to DhaA.WT.

DhaA.H272F = DhaA.H272F (Rhodococcus rhodochrous, UniProt P0A3G2, H272F); test: Binding of labeled chloroalkane substrates to DhaA.H272F
Text: as §1

streptavidin = streptavidin (Streptomyces avidinii, UniProt P22629); settings: surface plasmon resonance; cited from earlier work
[1] = target: cyclic AMP dependent protein kinase catalytic subunit (Homo sapiens, UniProt P17612); settings: cited from earlier work
[2] = target: catalytic subunit of protein kinase A (Homo sapiens, UniProt P17612); settings: cited from earlier work

| Compound | binding to DhaA.WT (DhaA.WT) | binding to DhaA.H272F (DhaA.H272F) | further results |
| --- | --- | --- | --- |
| 5-carboxy-X-rhodamine-C10H21NO2—Cl | not | bound | – |
| O=C(CCCC[C@@H]1SC[C@@H]2NC(=O)N[C@@H]21)NCCOCCOCCCCCCCl [Biotin-C10H21NO2—Cl] | not | bound | – |
| O=C(O)CCCC[C@@H]1SC[C@@H]2NC(=O)N[C@@H]21 [biotin] | – | – | on-rate for biotin-streptavidin interaction (streptavidin): 5e+06 M⁻¹ s⁻¹ |
| O=C(NCCOCCOCCCCCCCl)c1ccc(-c2c3ccc(=O)cc-3oc3cc(O)ccc23)c(C(=O)O)c1 [carboxyfluorescein-C10H21NO2—Cl] | not | bound | – |
| Carboxytetramethylrhodamine-C10H21NO2—Cl | not | bound | – |
| LRRASLG | – | – | reduction of activity on addition of kinase catalytic subunit [1]: 30% |
| RRFS: Photinus pyralis luciferase with valine 217 mutated to arginine generating site RRFS (Sala-Newby et al.) | – | – | decrease of activity when phosphorylated [2]: up to 80% |

— US20090253131A1, “HYBRID FUSION REPORTER AND USES THEREOF” (Promega Corporation, priority 2007, published 2009)
